Measured values taken from patent publication US20240018470A1, “METHOD OF MANIPULATING PLURIPOTENCY IN CELLS” (YALE UNIVERSITY, priority 2022, published 2024).

What was measured:
Type in all cases: in vivo, Xenopus tropicalis
[1] = system: animal pole of stage 10 embryos; experiment: Calcium imaging (GCaMP6/mCherry) of the animal pole; settings: stage 10, 20 s time lapse
Method: GCaMP6 and mCherry mRNAs were mixed and injected into embryos at the one-cell stage. Half of these embryos were then injected with kcnh6 MO and the other half with control MO, still at the one-cell stage. Embryos were transferred at stage 10 into the round wells of a press-to-seal silicone isolator (Sigma 53685) mounted between two cover slips in 2% Methylcellulose- 1/9×MR. GcaMP6 and mCherry fluorescence was then captured for 20s (1 frame per second) via time lapse in the whole animal pole of each embryo with a 20× objective of an LSM710 confocal microscope using identical acquisition settings across Control MO and kcnh6 MO embryos. […] However, all embryos did display transient increases in GcaMP6 fluorescence, varying in intensity and spreading to multiple cells. The frames of each recording were sorted to identify the calcium transient peak (in area), and GcAMP6 fluorescence intensity was quantified at peak as a ratio to mCherry in mCherry+ cells. The maximum Ca′ transient area was calculated by demarcating in Fuji the GCaMP6(+) vs GcaMP6(−) area of the animal pole at transient peak. […]
In experiments where embryos were evaluated for phenotypes and scored (gastrulation, left-right patterning, in situ hybridizations) the present study carried out three to five biological replicates and Fisher's exact test to evaluate statistical significance. […]

[2] = system: Xenopus embryos; experiment: Whole mount in situ hybridization for germ layer and pluripotency markers
Description: In order to generate a full-length antisense probe for X. tropicalis kcnh6, kcnh6 cDNA was cloned from stage 45 tadpole whole mRNA using primers […] ID NO:10) and […] ID NO:11) (XM_012952904.1). It was noted that kcnh6 had been misannotated as kcnh2 in the v7.1 model of the X. tropicalis genome (The present study used NCBI Annotation XP_012808358.2 to identify KCNH6). […] GRPs were dissected post fixation and prior to dehydration to detect dandy. To detect putative gene expression in the prospective endoderm (mixer, vegT, kcnh6) gastrula stage embryos were bisected to facilitate better probe access. Briefly, whole mount in situ hybridization of digoxigenin-labeled antisense probes was performed overnight, the labelled embryos were then washed, incubated with anti-digoxigenin-AP Fab fragments (Roche 11093274910), and signal was detected using BM-purple (Roche 11442074001). Normal embryonic medium is 1/9× modified Ringer's (MR) containing 11 mM NaCl, 0.2 mM KCl, 0.2 mM CaCl2), 0.1 mM Mg2Cl and 0.55 mM HEPES. […] For extracellular K^+ manipulations, the KCl concentration in 1/9×MR was modified from 0.2 mM (normal) to 20 mM (high) or 0 mM (low). […] For rapamycin, the present study created a standard stock solution of 50 mg/ml in DMSO. The stock solution was diluted 1:2500 in the appropriate embryonic media (final 20 μg/ml). […] In experiments where embryos were evaluated for phenotypes and scored (gastrulation, left-right patterning, in situ hybridizations) the present study carried out three to five biological replicates and Fisher's exact test to evaluate statistical significance. The animal cap experiment was performed twice with a total score of four to eight animal caps per experiment. […] For whole cell electrophysiological recordings, three to five embryos (two cells each) were examined for their membrane potential and statistical significance was tested by student's t-test. Graphs were designed using GraphPad Prism software. Models were created with BioRender.com.

[3] = system: Xenopus embryos; experiment: Organ situs (left-right patterning) scoring in stage 45 tadpoles; settings: kcnh6 depletion, injected at one-cell stage
Method: Stage 45 Xenopus embryos were paralyzed with benzocaine or tricaine and scored with a light stereomicroscope. Cardiac looping was determined by position of the outflow tract; D-loop: rightward, L-loop: leftward; A-loop: midline. Normal intestinal looping was scored as counter-clockwise rotation of the gut, while abnormal intestinal looping was scored as completely inverse gut rotation (clockwise) or complete lack of looping (un-looped). While a completely inverted gut rotation is clearly an abnormality of LR patterning, an unlooped gut is less clear so the present study only considered an unlooped gut as abnormal situs when combined with abnormal placement (left-sided or midline) of the gall bladder. To quantify total abnormal organ situs, each tadpole was counted only once, regardless of whether multiple organs were affected.
Normal embryonic medium is 1/9× modified Ringer's (MR) containing 11 mM NaCl, 0.2 mM KCl, 0.2 mM CaCl2), 0.1 mM Mg2Cl and 0.55 mM HEPES. To allow Ergtoxin to penetrate the embryos, the present study manually removed the vitelline envelope of stage 8 embryos and incubated embryos in 1/9×MR containing 50 nM Ergtoxin (Alomone STE-450) until stage 12. Embryos were then transferred back into 1/9×MR lacking Ergtoxin to develop until stage 45 in order to score organ situs. Barium chloride was applied into the medium at 20 mM and embryos were thoroughly rinsed in 1/9×MR after each incubation period for further development in Ba2+-free medium. For extracellular K^+ manipulations, the KCl concentration in 1/9×MR was modified from 0.2 mM (normal) to 20 mM (high) or 0 mM (low). The ionophore valinomycin (ACROS) and L-type VGCC blocker Nifedipine (ACROS) were diluted in DMSO as stock solutions and applied to embryos in 1/9×MR at 2 nM and 10 μM respectively. Treatments performed during gastrulation were applied from stage 8 through stage 12, and embryos were then rinsed thoroughly and returned into 1/9×MR. For rapamycin, the present study created a standard stock solution of 50 mg/ml in DMSO. The stock solution was diluted 1:2500 in the appropriate embryonic media (final 20 μg/ml). Embryos were treated at stage 7 and then fixed at stage 11 for in situ hybridization.
In experiments where embryos were evaluated for phenotypes and scored (gastrulation, left-right patterning, in situ hybridizations) the present study carried out three to five biological replicates and Fisher's exact test to evaluate statistical significance. The animal cap experiment was performed twice with a total score of four to eight animal caps per experiment. For the calcium transient analyses, data was collected from three to five embryos in each experiment in three independent experiments, and statistical analyses on GCaMP/mCherry fluorescence intensity as well as Ca^2+ transient area were performed using student's t-test. For whole cell electrophysiological recordings, three to five embryos (two cells each) were examined for their membrane potential and statistical significance was tested by student's t-test. Graphs were designed using GraphPad Prism software. Models were created with BioRender.com.

For “kcnh6 MO: kcnh6 translation blocking morpholino oligonucleotide, 5′-GGTCCTCGAAGTTTAGGATAAACAT-3′, SEQ ID NO:1 (all phosphorodiamidate morpholino (PMO))”, the “animal pole area simultaneously affected by Ca^2+ transients, average” value [1] was 71±11%, the “animal pole area with simultaneous calcium increases in most embryos” value [1] was > 90% and the “embryos with myf5 lost” value ([2]; kcnh6 depleted embryos treated only with DMSO) was 35±5%. The “embryos with absent ectodermin” value ([2]; kcnh6 depleted embryos treated with DMSO) was 51±6% and the abnormal organ situs [3] was 91±7%.
